{"source": "paper PMC4579271", "about": "“Inflammatory Signaling by NOD-RIPK2 Is Inhibited by Clinically Relevant Type II Kinase Inhibitors” (Chemistry & Biology, 2015)", "key": {"[1]": {"system": "LPS and Pam3CSK4 responses in RAW264.7 cells", "test": "qRT-PCR of Toll-like receptor-dependent inflammatory gene expression in RAW264.7 cells (LPS, Pam3CSK4)", "format": "cell-based, mouse", "details": "100 nM", "method": "Figure 6 Inhibition of NOD-Dependent Inflammatory Gene Expression in RAW264.7 Cells (A and B) Cells were pre-treated with 1, 10, or 100 nM inhibitors for 30 min and stimulated with 10 μg/ml MDP (A) or Tri-DAP (B) for 18–24 hr in triplicate. RNA samples were isolated and changes in gene expression were analyzed using gene-specific primers using SYBR qRT-PCR. All values were normalized to the levels of GAPDH. (C and D) Lack of inhibition of Toll-like receptor-dependent inflammatory gene expression in RAW264.7 cells. Experiments were performed as described above, except cells were stimulated with 10 ng/ml E. coli LPS (C) or 500 ng/ml Pam3CSK4 (D). All experiments were performed in triplicate; error bars indicate SD values.\n40C centrifuge at 14,000 rpm for 15 min to collect lysates. Protein concentrations were measured using […] protein assay reagent (Pierce). […]\nFor ADPGlo (Promega) assays, 1 ng Abl or 10 ng of RIPK2 was diluted in reaction buff er (40 mM Tris-HCl pH 7.5, 20 mM MgCl2, 0.5 m M DTT, 0.01% BSA) supplemented with 50 µM ATP and 10-point dose range of inhibitors. […] Luminescent signal was generated by addition of 10 µL of kinase detection reagent for 30 minutes at room temperature and determined using Victor3V platereader (Perkin Elmer). Specific signal was calculated by subtracting values in the wells without protein and inhibitor from the values in the test wells. […]"}, "[2]": {"system": "RAW264.7 macrophage cells", "test": "Cell viability and morphology, 24 hours", "details": "100 nM"}, "[3]": {"system": "NF-κB activation in U2OS cells", "test": "NF-κB dual luciferase reporter assay in U2OS cells overexpressing HA-NOD2", "details": "100 nM, 24 hr"}, "[4]": {"system": "RIPK2 ubiquitination in THP-1 cells", "test": "TUBE purification of ubiquitin conjugates, L18-MDP-stimulated THP-1 cells", "details": "200 ng/ml L18-MDP"}}}
{"smiles": "Cc1ccc(C(=O)Nc2ccc(CN3CCN(C)CC3)c(C(F)(F)F)c2)cc1C#Cc1cnc2cccnn12", "note": "[ponatinib, 3-[2-(imidazo[1,2-b]pyridazin-3-yl)ethynyl]-4-methyl-N-{4-[(4-methylpiperazin-1-yl)methyl]-3-(trifluoromethyl)phenyl}benzamide]", "values": [{"measurement": "LPS and Pam3CSK4 responses", "setting": "[1]", "value": "partially attenuated"}, {"measurement": "morphology of RAW cells", "setting": "[2]", "value": "caused rounding of RAW cells"}, {"measurement": "NF-κB activation", "setting": "[3]", "value": "completely disabled"}, {"measurement": "concentration completely blocking RIPK2 ubiquitination", "setting": "[4]", "value": "≥ 25", "unit": "nM"}, {"measurement": "concentration reducing extent and length of ubiquitin-modified RIPK2", "setting": "[4]", "value": "5 to 10", "unit": "nM"}]}
